Columns and labels:
Test in all cases: AHC metabolism by recombinant cDNA-expressed CYP isoform
Type in all cases: in vitro ADME
Details in all cases: 10 µM AHC, 10 pmol recombinant CYP, NGS, 37 °C, 60 min
CYP2D6 = molecular target: T1, CYP2D6 (Homo sapiens, UniProt P10635)
T1 construct: purchased Corning Gentest
Method: (§1) To identify the metabolic enzymes for AHC, 10 µM AHC was incubated with 10 pmol of human recombinant cDNA-expressed CYP isoforms (CYP1A1, 1A2, 2A6, 2B6, 2C8, 2C9, 2C19, 2D6, 2E1, 3A4, and 3A5) in the presence of 0.1 M potassium phosphate buffer (pH 7.4). The reaction was initiated by adding 100 µL of NGS at 37 °C for 60 min. Then, the mixture was suspended by adding 400 µL of ice-cold 100% ACN. Following centrifugation at 15,700× g for 10 min at 4 °C, the supernatant was transferred to a new tube and evaporated using a speed-vacuum concentrator. Next, the dried sample was diluted with 100 µL of 20% MeOH containing 0.1% formic acid, and a 5 µL aliquot was injected into a C18 column for LC–MS/MS analysis.
(§2) To identify the CYP isoforms involved in AHC metabolism, AHC (10 µM) was incubated with eleven cDNA-expressed recombinant CYP isoforms (CYP1A1, CYP1A2, CYP2A6, CYP2B6, CYP2C8, CYP2C9, CYP2C19, CYP2D6, CYP2E1, CYP3A4, and CYP3A5) in the presence of the NGS. […] However, the metabolites of AHC were not observed from reactions with other CYPs. Thus, in the metabolism of AHC in HLMs, CYP3A4 was involved as the main enzyme, and four types of metabolites were generated.

CYP2E1 = molecular target: T2, CYP2E1 (Homo sapiens, UniProt P05181)
T2 construct: purchased Corning Gentest
T2 sequence (P05181 whole entry): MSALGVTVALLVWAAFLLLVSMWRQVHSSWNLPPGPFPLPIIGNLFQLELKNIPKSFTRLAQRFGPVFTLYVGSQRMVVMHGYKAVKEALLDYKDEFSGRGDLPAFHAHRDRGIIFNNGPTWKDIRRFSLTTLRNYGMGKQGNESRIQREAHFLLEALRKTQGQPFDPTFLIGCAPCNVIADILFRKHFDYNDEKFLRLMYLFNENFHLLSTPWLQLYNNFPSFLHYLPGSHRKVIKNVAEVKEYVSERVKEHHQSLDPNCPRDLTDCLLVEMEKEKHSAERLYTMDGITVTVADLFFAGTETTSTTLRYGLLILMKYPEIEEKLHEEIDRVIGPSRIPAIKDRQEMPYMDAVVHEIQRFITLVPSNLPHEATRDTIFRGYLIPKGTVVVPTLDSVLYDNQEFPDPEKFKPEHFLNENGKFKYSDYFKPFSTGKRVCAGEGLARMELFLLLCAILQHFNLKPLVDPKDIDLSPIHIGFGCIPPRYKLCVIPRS
Method: as §1, §2

CYP2C19 = molecular target: T3, CYP2C19 (Homo sapiens, UniProt P33261)
T3 construct: purchased Corning Gentest
T3 sequence (P33261 whole entry): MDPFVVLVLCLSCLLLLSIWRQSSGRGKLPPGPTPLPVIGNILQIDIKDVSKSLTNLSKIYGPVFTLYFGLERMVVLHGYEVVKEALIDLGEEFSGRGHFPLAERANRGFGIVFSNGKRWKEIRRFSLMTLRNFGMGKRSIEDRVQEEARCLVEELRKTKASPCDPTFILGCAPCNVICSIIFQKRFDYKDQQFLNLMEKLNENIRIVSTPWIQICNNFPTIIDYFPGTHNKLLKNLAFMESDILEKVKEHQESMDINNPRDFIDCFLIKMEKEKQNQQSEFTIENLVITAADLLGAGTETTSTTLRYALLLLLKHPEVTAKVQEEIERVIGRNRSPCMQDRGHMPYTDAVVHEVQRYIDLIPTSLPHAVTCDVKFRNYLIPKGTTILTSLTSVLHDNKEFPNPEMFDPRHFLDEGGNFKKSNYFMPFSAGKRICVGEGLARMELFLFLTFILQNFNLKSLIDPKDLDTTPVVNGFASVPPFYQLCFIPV
Method: as §1, §2

CYP2B6 = molecular target: T4, CYP2B6 (Homo sapiens, UniProt P20813)
T4 construct: purchased Corning Gentest
T4 sequence (P20813 1-491): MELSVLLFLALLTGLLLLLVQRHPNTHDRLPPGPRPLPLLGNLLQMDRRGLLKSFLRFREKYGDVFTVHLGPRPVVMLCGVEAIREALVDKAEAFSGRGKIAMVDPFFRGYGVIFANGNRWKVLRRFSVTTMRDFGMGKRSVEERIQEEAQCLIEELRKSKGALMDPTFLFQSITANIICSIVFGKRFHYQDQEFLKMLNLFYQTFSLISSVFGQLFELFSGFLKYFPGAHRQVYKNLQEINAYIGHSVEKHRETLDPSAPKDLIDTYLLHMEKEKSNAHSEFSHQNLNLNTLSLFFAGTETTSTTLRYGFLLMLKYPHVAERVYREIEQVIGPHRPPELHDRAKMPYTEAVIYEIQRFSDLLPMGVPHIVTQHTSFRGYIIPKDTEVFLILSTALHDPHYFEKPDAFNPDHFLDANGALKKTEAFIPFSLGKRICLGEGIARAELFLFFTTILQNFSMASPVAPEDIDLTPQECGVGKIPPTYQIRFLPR
Method: as §1, §2

CYP2C8 = molecular target: T5, CYP2C8 (Homo sapiens, UniProt P10632)
T5 construct: purchased Corning Gentest
T5 sequence (P10632 1-490): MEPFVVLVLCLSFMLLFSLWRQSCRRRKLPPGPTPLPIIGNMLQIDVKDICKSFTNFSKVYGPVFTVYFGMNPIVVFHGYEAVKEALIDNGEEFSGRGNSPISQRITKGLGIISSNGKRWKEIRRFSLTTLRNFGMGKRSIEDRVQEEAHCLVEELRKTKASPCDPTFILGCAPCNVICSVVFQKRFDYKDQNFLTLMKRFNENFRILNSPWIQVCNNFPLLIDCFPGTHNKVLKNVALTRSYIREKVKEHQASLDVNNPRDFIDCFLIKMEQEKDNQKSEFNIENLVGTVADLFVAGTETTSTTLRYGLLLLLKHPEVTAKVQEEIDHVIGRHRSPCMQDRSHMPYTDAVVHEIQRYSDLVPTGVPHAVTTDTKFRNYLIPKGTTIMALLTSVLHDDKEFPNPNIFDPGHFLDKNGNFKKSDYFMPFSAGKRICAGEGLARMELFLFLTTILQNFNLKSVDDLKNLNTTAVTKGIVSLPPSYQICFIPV
Method: as §1, §2

CYP2A6 = molecular target: T6, CYP2A6 (Homo sapiens, UniProt P11509)
T6 construct: purchased Corning Gentest
T6 sequence (P11509 1-494): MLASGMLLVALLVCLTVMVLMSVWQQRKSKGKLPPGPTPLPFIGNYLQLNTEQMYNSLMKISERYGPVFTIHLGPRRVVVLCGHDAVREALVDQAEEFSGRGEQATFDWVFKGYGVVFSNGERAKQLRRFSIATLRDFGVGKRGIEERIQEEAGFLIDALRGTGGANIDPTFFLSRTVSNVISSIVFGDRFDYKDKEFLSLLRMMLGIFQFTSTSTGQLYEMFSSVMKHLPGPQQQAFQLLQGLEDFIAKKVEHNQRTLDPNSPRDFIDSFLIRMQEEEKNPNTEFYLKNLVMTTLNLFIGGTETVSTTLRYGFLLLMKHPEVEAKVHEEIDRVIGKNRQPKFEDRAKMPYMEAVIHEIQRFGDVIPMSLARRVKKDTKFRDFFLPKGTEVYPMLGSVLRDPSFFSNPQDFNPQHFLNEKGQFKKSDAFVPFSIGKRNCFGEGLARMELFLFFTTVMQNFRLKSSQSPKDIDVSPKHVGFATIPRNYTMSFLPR
Method: as §1, §2

CYP1A1 = molecular target: T7, CYP1A1 (Homo sapiens, UniProt P04798)
T7 construct: purchased Corning Gentest
T7 sequence (P04798 1-512): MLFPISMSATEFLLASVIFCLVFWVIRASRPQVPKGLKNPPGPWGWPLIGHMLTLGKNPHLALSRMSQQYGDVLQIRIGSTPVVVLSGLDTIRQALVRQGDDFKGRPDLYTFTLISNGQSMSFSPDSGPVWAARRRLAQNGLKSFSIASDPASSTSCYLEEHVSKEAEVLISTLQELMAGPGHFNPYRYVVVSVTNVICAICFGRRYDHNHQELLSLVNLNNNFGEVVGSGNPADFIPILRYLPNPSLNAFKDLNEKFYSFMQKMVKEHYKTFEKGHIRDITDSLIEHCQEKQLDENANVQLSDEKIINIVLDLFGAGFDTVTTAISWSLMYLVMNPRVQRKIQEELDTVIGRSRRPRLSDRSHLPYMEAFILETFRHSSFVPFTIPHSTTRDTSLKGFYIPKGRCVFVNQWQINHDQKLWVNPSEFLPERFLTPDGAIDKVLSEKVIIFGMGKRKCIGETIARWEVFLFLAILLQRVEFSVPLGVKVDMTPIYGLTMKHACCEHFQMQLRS
Method: as §1, §2

CYP2C9 = molecular target: T8, CYP2C9 (Homo sapiens, UniProt P11712)
T8 construct: purchased Corning Gentest
T8 sequence (P11712 whole entry): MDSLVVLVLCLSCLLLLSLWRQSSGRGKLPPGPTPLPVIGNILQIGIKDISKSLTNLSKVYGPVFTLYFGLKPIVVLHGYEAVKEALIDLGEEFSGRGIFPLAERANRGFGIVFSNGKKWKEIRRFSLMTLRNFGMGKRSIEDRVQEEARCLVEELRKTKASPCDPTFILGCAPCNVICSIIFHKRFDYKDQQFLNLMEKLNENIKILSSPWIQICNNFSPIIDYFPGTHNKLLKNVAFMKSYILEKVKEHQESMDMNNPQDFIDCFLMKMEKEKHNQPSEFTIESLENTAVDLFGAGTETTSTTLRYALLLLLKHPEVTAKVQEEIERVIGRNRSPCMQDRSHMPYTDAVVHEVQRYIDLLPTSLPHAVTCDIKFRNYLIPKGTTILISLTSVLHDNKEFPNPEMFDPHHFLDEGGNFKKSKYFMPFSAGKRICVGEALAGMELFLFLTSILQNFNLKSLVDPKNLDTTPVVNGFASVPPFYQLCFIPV
Method: as §1, §2

T1 sequence (P10635 whole entry): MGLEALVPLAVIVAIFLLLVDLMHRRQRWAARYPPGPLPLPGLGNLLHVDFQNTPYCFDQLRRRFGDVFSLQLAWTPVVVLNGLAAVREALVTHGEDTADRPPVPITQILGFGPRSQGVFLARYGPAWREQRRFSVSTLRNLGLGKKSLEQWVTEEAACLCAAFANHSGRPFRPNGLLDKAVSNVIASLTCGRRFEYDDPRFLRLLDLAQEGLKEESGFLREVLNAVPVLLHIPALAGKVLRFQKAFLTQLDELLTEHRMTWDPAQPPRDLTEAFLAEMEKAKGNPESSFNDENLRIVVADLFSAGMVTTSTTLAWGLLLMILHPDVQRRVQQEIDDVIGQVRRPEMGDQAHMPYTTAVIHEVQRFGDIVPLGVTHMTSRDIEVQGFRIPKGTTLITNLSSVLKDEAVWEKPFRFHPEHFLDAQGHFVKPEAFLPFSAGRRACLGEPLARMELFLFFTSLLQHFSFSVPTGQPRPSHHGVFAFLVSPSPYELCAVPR

CC(=O)O[C@@H]1[C@@H](C)CC[C@]2(O)[C@]3(C)CC(=O)O[C@]12[C@@]1(O)C(C)=C(C(C)C)C[C@@]31O [AHC, anhydrocinnzeylanine]
not observed: metabolites of AHC from reaction with CYP2D6 (CYP2D6) | metabolites of AHC from reaction with CYP2E1 (CYP2E1) | metabolites of AHC from reaction with CYP2C19 (CYP2C19) | metabolites of AHC from reaction with CYP2B6 (CYP2B6) | metabolites of AHC from reaction with CYP2C8 (CYP2C8) | metabolites of AHC from reaction with CYP2A6 (CYP2A6) | metabolites of AHC from reaction with CYP1A1 (CYP1A1) | metabolites of AHC from reaction with CYP2C9 (CYP2C9)
